According to patent US20080125469A1, “Thiadiazole compounds and methods of use thereof” (Wyeth, priority 2006, published 2008):

These compounds were tested against T1, purified recombinant human Aggrecanase-2 (Agg2-Phe628) (Homo sapiens, UniProt Q9UNA0) (assay: Aggrecanase 2 continuous in vitro fluorescence assay). Conditions: Agg2-Phe628 0.5 μg/ml, substrate 25 μM, 30° C.; read-out: IC50.
T1 construct: (Agg2-Phe628) (MW=41,737), which is a truncated form of full-length human aggrecanase-2; made in house; host or cells: CHO cells
T1 sequence (Q9UNA0 262-628 limits assumed): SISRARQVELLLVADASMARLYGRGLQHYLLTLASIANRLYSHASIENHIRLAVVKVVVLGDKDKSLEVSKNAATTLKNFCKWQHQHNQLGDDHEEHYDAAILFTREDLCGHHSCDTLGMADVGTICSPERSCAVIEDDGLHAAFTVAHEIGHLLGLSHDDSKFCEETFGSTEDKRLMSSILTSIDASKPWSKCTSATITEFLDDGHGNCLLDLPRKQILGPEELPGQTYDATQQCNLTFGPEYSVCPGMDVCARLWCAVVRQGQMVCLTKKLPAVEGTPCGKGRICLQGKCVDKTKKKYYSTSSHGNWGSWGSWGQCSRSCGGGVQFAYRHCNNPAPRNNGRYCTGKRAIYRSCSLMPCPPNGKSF
Format: biochemical
Description: A continuous vitro fluorescence assay was employed, wherein the enzyme used in the assay was a purified recombinant human Aggrecanase-2 (Agg2-Phe628) (MW=41,737), which is a truncated form of full-length human aggrecanase-2 that was expressed in CHO cells and purified prior to use. The final concentration of Agg2-Phe628 was 0.5 μg/ml. The buffer used in this assay was 50 mM HEPES, pH 7.5, 100 mM NaCl, 5 mM CaCl2, 0.1% CHAPS, 5% glycerol. The substrate used in the assay was a synthetic peptide having the sequence ABz-[sequence]-Dap(Dnp)-KK—NH2 (>95% pure by HPLC, AnaSpec, Inc.), wherein Abz refers to ortho-aminobenzyl, a fluorescent group which is quenched by energy transfer to a 2,4-dinitrophenyl group. The final concentration of substrate in the assay was 25 μM and was spectrophotometrically determined using the extinction coefficient at 354 nm of 18,172 M^−1cm^−1. The Vmax and Km for this enzyme/substrate reaction were determined to be insensitive to DMSO up to at least 10% (v/v).
The total reaction volume was 100 μl. The buffer and enzyme were added first followed by addition of 10× inhibitor from the dilution plate. Separate enzyme and buffer samples were included in order to obtain the maximal rate of substrate cleavage. The reaction was allowed to stand at 30° C. for 15 minutes, then substrate was added, the resultant solution was mixed. The resultant reaction was allowed to progress, with monitoring, for 40 minutes at 30° C. in kinetic mode using λex: 340 nm and λem: 420 (GeminiXS Molecular Devices).
The fluorescence intensity is linear during the time of data collection. The slope of the line (Vmax/sec) represents the initial reaction rate, ν. The maximal rate of cleavage of substrate was determined in the absence of inhibitor. The percent inhibition of activity in the presence of inhibitor was calculated using the following equation:
% inhibition=(1−ν(RFU/sec))/Maximal Rate(RFU/sec))*100
The IC50 was obtained by fitting the initial rate, ν or % inhibition at each concentration of inhibitor to the following equation:
This model describes a sigmoidal curve with an adjustable baseline, wherein:
y is the % inhibition or initial rate of reaction;
C is the concentration of inhibitor under test;
a is the limiting response as C approaches zero. As C increases without bound y tends toward its lower limit, d;
y is halfway between the lower and upper asymptotes when C=IC50; and
n is the Hill coefficient. The sign of n is positive when the response increases with increasing dose and is negative when the response decreases with increasing dose (inhibition).

Row | IC50 | Compound
1 | 2410 nM | COc1ccc(C2=NNC3(S2)C(=O)Nc2ccc(Br)cc23)cc1 (stereo not shown) [Compound 4, 5-bromo-5′-(4-methoxyphenyl)-3′H-spiro[indole-3,2′-[1,3,4]thiadiazol]-2(1H)-one]
2 | 612 nM | Cc1ccc(C2=NNC3(S2)C(=O)N(Cc2ccccc2)c2ccc(C)cc23)cc1 (stereo not shown) [Compound 33, 1-benzyl-5-methyl-5′-(4-methylphenyl)-3′H-spiro[indole-3,2′-[1,3,4]thiadiazol]-2(1H)-one]
3 | 13600 nM | O=C1Nc2ccc(Br)cc2C12NN=C(c1ccccc1)S2 (stereo not shown) [Compound 54, 5-bromo-5′-phenyl-3′H-spiro[indoline-3,2′-[1,3,4]thiadiazol]-2-one]
4 | 1960 nM | 5-chloro-5′-(4-methoxyphenyl)-3′H-spiro[indole-3,2′-[1,3,4]thiadiazol]-2(1H)-one [Compound 13]
5 | 1450 nM | CCCC(=O)N1C(=O)C2(NN=C(c3ccc(C)cc3)S2)c2cc(CC)ccc21 (stereo not shown) [Compound 45, 1-butyryl-5-ethyl-5′-(4-methylphenyl)-3′H-spiro[indole-3,2′-[1,3,4]thiadiazol]-2(1H)-one]
6 | 3050 nM | CC(C)N1C(=O)C2(NN=C(c3ccccc3)S2)c2ccccc21 (stereo not shown) [Compound 42, 1-isopropyl-5′-phenyl-3′H-spiro[indole-3,2′-[1,3,4]thiadiazol]-2(1H)-one]
7 | 1480 nM | COc1ccc(C2=NNC3(S2)C(=O)N(c2ccc(Cl)cc2)c2ccc(C)cc23)cc1 (stereo not shown) [Compound 25, 1-(4-chlorophenyl)-5′-(4-methoxyphenyl)-5-methyl-3′H-spiro[indole-3,2′-[1,3,4]thiadiazol]-2(1H)-one]
8 | 1180 nM | 5′-(4-methoxyphenyl)-1-[3-(trifluoromethyl)phenyl]-3′H-spiro[indole-3,2′-[1,3,4]thiadiazol]-2(1H)-one [Compound 8]
9 | 4430 nM | COc1ccc(C2=NNC3(S2)C(=O)Nc2ccc([N+](=O)[O-])cc23)cc1 (stereo not shown) [Compound 16, 5′-(4-methoxyphenyl)-5-nitro-3′H-spiro[indole-3,2′-[1,3,4]thiadiazol]-2(1H)-one]
10 | 950 nM | CCCc1ccc2c(c1)N(Cc1ccccc1)C(=O)C21NN=C(c2ccc(OC)cc2)S1 (stereo not shown) [Compound 28, 1-benzyl-5′-(4-methoxyphenyl)-6-propyl-3′H-spiro[indole-3,2′-[1,3,4]thiadiazol]-2(1H)-one]
11 | 12500 nM | CC(=O)N1C(=O)C2(NN=C(c3ccccc3)S2)c2ccccc21 (stereo not shown) [Compound 56, 1-acetyl-5′-phenyl-3′H-spiro[indoline-3,2′-[1,3,4]thiadiazol]-2-one]
12 | 4670 nM | Cc1cc(C)c2c(c1)C1(NN=C(c3ccccc3)S1)C(=O)N2 (stereo not shown) [Compound 34, 5,7-dimethyl-5′-phenyl-3′H-spiro[indole-3,2′-[1,3,4]thiadiazol]-2(1H)-one]
13 | 1040 nM | COc1ccc(C2=NNC3(S2)C(=O)Nc2c3ccc(Cl)c2C)cc1 (stereo not shown) [Compound 17, 6-chloro-5′-(4-methoxyphenyl)-7-methyl-3′H-spiro[indole-3,2′-[1,3,4]thiadiazol]-2(1H)-one]
14 | 3680 nM | ethyl [5′-(4-methoxyphenyl)-2-oxo-3′H-spiro[indole-3,2′-[1,3,4]thiadiazol]-1(2H)-yl]acetate [Compound 9]
15 | 30000 nM | O=C1Nc2ccccc2C12NN=C(c1ccccc1)S2 (stereo not shown) [Compound 53, 5′-phenyl-3′H-spiro[indoline-3,2′-[1,3,4]thiadiazol]-2-one]
16 | 1400 nM | CCCc1ccc2c(c1)NC(=O)C21NN=C(c2ccc(C)cc2)S1 (stereo not shown) [Compound 37, 5′-(4-methylphenyl)-6-propyl-3′H-spiro[indole-3,2′-[1,3,4]thiadiazol]-2(1H)-one]

Row | IC50 | Compound
17 | 1660 nM | CCc1ccc2c(c1)C1(NN=C(c3ccc(C(C)(C)C)cc3)S1)C(=O)N2 (stereo not shown) [Compound 44, 5′-(4-tert-butylphenyl)-5-ethyl-3′H-spiro[indole-3,2′-[1,3,4]thiadiazol]-2(1H)-one]
18 | 14300 nM | O=C1Nc2cc(F)c(F)cc2C12NN=C(c1ccccc1)S2 (stereo not shown) [Compound 39, 5,6-difluoro-5′-phenyl-3′H-spiro[indole-3,2′-[1,3,4]thiadiazol]-2(1H)-one]
19 | 1220 nM | Cc1ccc(C2=NNC3(S2)C(=O)N(c2ccccc2C)c2ccc(C)cc23)cc1 (stereo not shown) [Compound 32, 5-methyl-1-(2-methylphenyl)-5′-(4-methylphenyl)-3′H-spiro[indole-3,2′-[1,3,4]thiadiazol]-2(1H)-one]
20 | 11100 nM | Cc1ccc2c(c1)C1(NN=C(c3ccccc3)S1)C(=O)N2 (stereo not shown) [Compound 55, 5-methyl-5′-phenyl-3′H-spiro[indoline-3,2′-[1,3,4]thiadiazol]-2-one]
21 | 1400 nM | COc1ccc(C2=NNC3(S2)C(=O)Nc2cc(C)ccc23)cc1 (stereo not shown) [Compound 19, 5′-(4-methoxyphenyl)-6-methyl-3′H-spiro[indole-3,2′-[1,3,4]thiadiazol]-2(1H)-one]
22 | 1260 nM | COc1ccc(C2=NNC3(S2)C(=O)N(c2ccc(Cl)c(Cl)c2)c2ccc(C)cc23)cc1 (stereo not shown) [Compound 26, 1-(3,4-dichlorophenyl)-5′-(4-methoxyphenyl)-5-methyl-3′H-spiro[indole-3,2′-[1,3,4]thiadiazol]-2(1H)-one]
23 | 13400 nM | COc1ccc(C2=NNC3(S2)C(=O)Nc2ccccc23)cc1 (stereo not shown) [Compound 3, 5′-(4-methoxyphenyl)-3′H-spiro[indole-3,2′-[1,3,4]thiadiazol]-2(1H)-one]
24 | 1520 nM | CCCC(=O)N1C(=O)C2(NN=C(c3ccc(OC)cc3)S2)c2cc(CC)ccc21 (stereo not shown) [Compound 46, 1-butyryl-5-ethyl-5′-(4-methoxyphenyl)-3′H-spiro[indole-3,2′-[1,3,4]thiadiazol]-2(1H)-one]
25 | 3750 nM | COc1ccc(C2=NNC3(S2)C(=O)Nc2c(C)cccc23)cc1 (stereo not shown) [Compound 18, 5′-(4-methoxyphenyl)-7-methyl-3′H-spiro[indole-3,2′-[1,3,4]thiadiazol]-2(1H)-one]
26 | 2960 nM | CCc1ccc2c(c1)C1(NN=C(c3ccc(F)cc3)S1)C(=O)N2 (stereo not shown) [Compound 43, 5-ethyl-5′-(4-fluorophenyl)-3′H-spiro[indole-3,2′-[1,3,4]thiadiazol]-2(1H)-one]
27 | > 2500 nM | COc1ccc(C2=NNC3(S2)C(=O)Nc2ccc(OC)cc23)cc1 (stereo not shown) [Compound 6, 5-methoxy-5′-(4-methoxyphenyl)-3′H-spiro[indole-3,2′-[1,3,4]thiadiazol]-2(1H)-one]
28 | 874 nM | 1-benzyl-5′-(4-methoxyphenyl)-3′H-spiro[indole-3,2′-[1,3,4]thiadiazol]-2(1H)-one [Compound 10]
29 | 5930 nM | CCc1ccc2c(c1)C1(NN=C(c3cccc(OC)c3)S1)C(=O)N2 (stereo not shown) [Compound 30, 5-ethyl-5′-(3-methoxyphenyl)-3′H-spiro[indole-3,2′-[1,3,4]thiadiazol]-2(1H)-one]
30 | 1360 nM | CCc1ccc2c(c1)C1(NN=C(c3ccc(OC)cc3)S1)C(=O)N2 (stereo not shown) [Compound 29, 5-ethyl-5′-(4-methoxyphenyl)-3′H-spiro[indole-3,2′-[1,3,4]thiadiazol]-2(1H)-one]
31 | 2470 nM | C#CCN1C(=O)C2(NN=C(c3ccc(OC)cc3)S2)c2ccccc21 (stereo not shown) [Compound 7, 5′-(4-methoxyphenyl)-1-prop-2-yn-1-yl-3′H-spiro[indole-3,2′-[1,3,4]thiadiazol]-2(1H)-one]

Same assay, conditions: inhibitor concentration not given

Row | % Inhibition | Compound
32 | 41% | COc1ccc2c(c1)C1(NN=C(c3ccccc3)S1)C(=O)N2 (stereo not shown) [Compound 35, 5-methoxy-5′-phenyl-3′H-spiro[indole-3,2′-[1,3,4]thiadiazol]-2(1H)-one]
33 | 30% | 1-[2-(dimethylamino)ethyl]-5′-(4-methoxyphenyl)-3′H-spiro[indole-3,2′-[1,3,4]thiadiazol]-2(1H)-one [Compound 11]
34 | 3% | Cc1ccc(C2=NNC3(S2)C(=O)Nc2ccc(C)cc23)cc1 (stereo not shown) [Compound 49, 5-methyl-5′-(4-methylphenyl)-3′H-spiro[indole-3,2′-[1,3,4]thiadiazol]-2(1H)-one]
35 | 3.7% | Cc1ccc(C2=NNC3(S2)C(=O)Nc2ccccc23)cc1 (stereo not shown) [Compound 50, 5′-(4-methylphenyl)-3′H-spiro[indole-3,2′-[1,3,4]thiadiazol]-2(1H)-one]
36 | 9.6% | CCc1ccc2c(c1)C1(NN=C(c3ccccc3)S1)C(=O)N2 (stereo not shown) [Compound 47, 5-ethyl-5′-phenyl-3′H-spiro[indole-3,2′-[1,3,4]thiadiazol]-2(1H)-one]
37 | 39% | COc1ccc(C2=NNC3(S2)C(=O)N(c2ccc(C)cc2)c2ccc(C)cc23)cc1 (stereo not shown) [Compound 24, 5′-(4-methoxyphenyl)-5-methyl-1-(4-methylphenyl)-3′H-spiro[indole-3,2′-[1,3,4]thiadiazol]-2(1H)-one]
38 | 48% | 1-(4-chlorobenzoyl)-5′-(4-methoxyphenyl)-3′H-spiro[indole-3,2′-[1,3,4]thiadiazol]-2(1H)-one [Compound 36]
39 | 39% | O=C1Nc2c(Cl)ccc(Cl)c2C12NN=C(c1ccccc1)S2 (stereo not shown) [Compound 40, 4,7-dichloro-5′-phenyl-3′H-spiro[indole-3,2′-[1,3,4]thiadiazol]-2(1H)-one]

Same assay, conditions: positive control at 10 nM

Row | inhibition at 0.01 µM | Compound
40 | 40% | CNC(=O)[C@H](Cc1ccccc1)NC(=O)[C@H](CC(C)C)[C@H](CSc1cccs1)C(=O)NO [N2-{(2R)-2-[(1S)-1-Hydroxycarbamoyl-2-(thiophen-2-ylsulfanyl)-ethyl]-4-methyl-pentanoyl}-N-methyl-L-phenylalaninamide, reference compound]

Same assay, conditions: positive control at 20 nM

Row | inhibition at 0.02 µM | Compound
41 | 60% | CNC(=O)[C@H](Cc1ccccc1)NC(=O)[C@H](CC(C)C)[C@H](CSc1cccs1)C(=O)NO [N2-{(2R)-2-[(1S)-1-Hydroxycarbamoyl-2-(thiophen-2-ylsulfanyl)-ethyl]-4-methyl-pentanoyl}-N-methyl-L-phenylalaninamide, reference compound]

Same assay, conditions: positive control at 200 nM

Row | inhibition at 0.2 µM | Compound
42 | 100% | CNC(=O)[C@H](Cc1ccccc1)NC(=O)[C@H](CC(C)C)[C@H](CSc1cccs1)C(=O)NO [N2-{(2R)-2-[(1S)-1-Hydroxycarbamoyl-2-(thiophen-2-ylsulfanyl)-ethyl]-4-methyl-pentanoyl}-N-methyl-L-phenylalaninamide, reference compound]

Same assay, conditions: positive control; read-out: Agg2 IC50

Row | IC50 | Compound
43 | 36 nM | CNC(=O)[C@H](Cc1ccccc1)NC(=O)[C@H](CC(C)C)[C@H](CSc1cccs1)C(=O)NO [N2-{(2R)-2-[(1S)-1-Hydroxycarbamoyl-2-(thiophen-2-ylsulfanyl)-ethyl]-4-methyl-pentanoyl}-N-methyl-L-phenylalaninamide, reference compound]
